Measurements taken from patent publication US8501749B2, “Azaquinazolinediones chymase inhibitors” (Boehringer Ingelheim International GmbH, priority 2009, dated 2013).

Target: Chymase (Homo sapiens (Human), UniProt P23946)
Details: read-out: Chymase IC50; fluorogenic rhodamine 110 peptide substrate, 1 hour at 28° C., 1% DMSO

Chain of Chymase (P23946 22-247): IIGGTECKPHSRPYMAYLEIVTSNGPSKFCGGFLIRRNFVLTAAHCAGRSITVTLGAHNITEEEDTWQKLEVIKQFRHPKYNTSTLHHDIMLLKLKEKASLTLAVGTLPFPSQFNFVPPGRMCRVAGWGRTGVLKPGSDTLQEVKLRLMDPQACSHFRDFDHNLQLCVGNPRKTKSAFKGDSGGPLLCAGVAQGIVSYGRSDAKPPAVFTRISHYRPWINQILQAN

IC50: 0.4 nM
Compound: CC[C@H](CC(=O)O)n1c(=O)c2ncccc2n(Cc2cn(C)c3cc(C)cc(C)c23)c1=O [(R)-3-[2,4-Dioxo-1-(1,4,6-trimethyl-1H-indol-3-ylmethyl)-1,4-dihydro-2H-pyrido[3,2-d]pyrimidin-3-yl]-pentanoic acid]
